Non-standard residues stand in square brackets, D forms with d. Residues, ends and D or L forms follow the SMILES beside them. Cha = N[CH](CC1CCCCC1)C(=O)O; Nle = CCCC[CH](N)C(=O)O; Orn = NCCC[CH](N)C(=O)O
These compounds were tested against thrombin (Homo sapiens, UniProt P00734) (assay: in vitro inhibition of thrombin amidase activity (fluorogenic substrate Tos-Gly-Pro-Arg-(7-amino-4-methylcoumarin))). Settings: peptide concentration of 250 nM.
Assay type: biochemical
Parameters: with 10 μL of human thrombin solution
Experimental: (§1) The values of the inhibition constant Ki were obtained from assays, in which thrombin hydrolyzes the fluorogenic substrate Tos-Gly-Pro-Arg-(7-amino-4-methylcoumarin). The assays were performed in 30 μL of assay buffer (0.05 M Tris, 0.1 M NaCl, 0.1% PEG 8000, pH 7.6) with 10 μL of human thrombin solution (10^−5 U/μL in assay buffer) and 140 μL of a solution of the fluorogenic substrate in assay buffer at a concentration v of 30 μM. Solutions of the test compound (10 μL) were added at various concentrations. The rates of substrate hydrolysis were measured by monitoring the reactions of 7-amino-4-methylcoumarin release at 460 nm with use of AMC. The reaction reached a steady state within 3 minutes after thrombin was combined with the substrate and an inhibitor. The kinetic data of the competitive inhibition (Km, Vmax, and Ki) were analyzed with the aid of the Hanes plot (A/V vs. A at various i values).
as §1, with “concentration” for “concentration v”, “using” for “with the aid of”, “values for A; here, A is the substrate concentration and V the reaction rate).” for “i values).”
as §1, with “conducted” for “performed”, “concentration” for “concentration v”, “using” for “with the aid of”, “values for A; here, A is the substrate concentration and V the reaction rate).” for “i values).”

Going from “N-Acetyl-L-Nhm-D-Cha-L-Aze-D-Tyr-L-Har amide [Example 79]” to “N-Acetyl-D-Phe-D-Cha-L-Aze-D-Tyr-L-Har amide [Example 77]”, the “Thrombin inhibition (thrombin amidase activity)” value (“Thrombin inhibition” for short) falls from 80% to 77%.

Compared with “N-Acetyl-L-Trp-D-Cha-L-Aze-D-Tyr-L-Har amide [Example 75]”, “N-Acetyl-L-Ala-D-Cha-L-Aze-D-Tyr-L-Har amide [Example 76]” is higher in “Thrombin inhibition” value: 76% for the first, 77% for the second.

Compared with “N-Acetyl-L-Iq3-D-Cha-L-Aze-D-Tyr-L-Har amide [Example 80]”, “N-Acetyl-L-Phg-D-Cha-L-Aze-D-Tyr-L-Har amide [Example 83]” is higher in “Thrombin inhibition” value: 72% for the first, 95% for the second.

Same assay, conditions: peptide concentration of 1 μM

First: N-Acetyl-L-Ile-L-Arg-L-Cha-D-Pro-D-Tyr-L-Arg amide [Example 29]
Second: N-Acetyl-D-Val-D-His-L-Cha-D-Pro-D-Tyr-L-Arg amide [Example 27]
The “Thrombin inhibition” value of the first is higher: 61% for the first, 51% for the second.

Going from “N-Acetyl-D-Val-L-Ala-L-Cha-D-Pro-D-Tyr-L-Arg amide [Example 9]” to “N-Acetyl-L-Tyr-D-Pro-L-Cha-D-Pro-D-Tyr-L-Arg amide [Example 39]”, the “Thrombin inhibition” value falls from 53% to 44%.

First: N-Acetyl-L-Ser-L-Cha-L-Cha-D-Pro-D-Tyr-L-Arg amide [Example 19]
Second: N-Acetyl-L-Ala-D-Cha-L-Aze-D-Tyr-L-Arg amide [Example 55]
The “Thrombin inhibition” value of the first is lower: 43% for the first, 63% for the second.

Compared with “N-Acetyl-L-Ala-D-Cha-L-Aze-D-Tyr-L-Har amide [Example 57]”, “N-Acetyl-L-Ser-L-Cha-D-Pro-D-Tyr-L-Arg amide [Example 22]” is lower in “Thrombin inhibition” value: 83% for the first, 31% for the second.

“N-Acetyl-L-Ile-L-Cha-D-Pro-D-Tyr-L-Arg amide [Example 11]” and “N-Acetyl-L-Ser-D-Val-L-Cha-D-Pro-D-Tyr-L-Arg amide [Example 16]” are the same in “Thrombin inhibition” value: 48% for the first, 48% for the second.

First: N-Acetyl-D-Glu-L-Cha-D-Pro-D-Tyr-L-Arg amide [Example 26]
Second: N-Acetyl-D-Lys-D-Pro-L-Cha-D-Pro-D-Tyr-L-Arg amide [Example 14]
The “Thrombin inhibition” value of the first is higher: 58% for the first, 53% for the second.

`CCCCC(NC(=O)C(CC1CCCCC1)NC(=O)C(CCCNC(=N)N)NC(C)=O)C(=O)NC(CC1CCCCC1)C(=O)NC(CCC(=O)O)C(N)=O` [Example 8, N-Acetyl-L-Arg-L-Cha-L-Nle-L-Cha-D-Glu amide] (Ac-R[Cha][Nle][Cha]E-NH2; configuration not given here) gave an inhibition at 1 µM of 35%.

Same assay, conditions: peptide concentration of 1 μM; 1 µM

Compared with “N-Acetyl-L-Ser-L-Ala-L-Cha-D-Pro-D-Tyr-L-Arg amide [Example 34]”, “N-Acetyl-L-Tyr-L-Cit-L-Cha-D-Pro-D-Tyr-L-Arg amide [Example 30]” is higher in “Thrombin inhibition” value: 47% for the first, 55% for the second.

Compared with “N-Acetyl-D-Tyr-L-Cha-D-Pro-D-Tyr-L-Arg amide [Example 52]”, “N-Acetyl-L-Ser-L-Ser-L-Cha-D-Pro-D-Tyr-L-Arg amide [Example 46]” is lower in “Thrombin inhibition” value: 47% for the first, 40% for the second.

Compared with “N-Acetyl-D-Lys-L-Nle-L-Cha-D-Pro-D-Tyr-L-Arg amide [Example 69]”, “N-Acetyl-L-Ser-L-Arg-L-Cha-D-Pro-D-Tyr-L-Arg amide [Example 18]” is higher in “Thrombin inhibition” value: 48% for the first, 67% for the second.

Going from “N-Acetyl-L-Ser-L-Arg-L-Cha-D-Pro-D-Tyr-L-Arg amide [Example 35]” to “N-Acetyl-L-Arg-L-Cha-D-Pro-D-Tyr-L-Arg amide [Example 53]”, the “Thrombin inhibition” value falls from 51% to 47%.

Compared with “N-Acetyl-L-Ser-L-Ser-L-Cha-D-Pro-D-Tyr-L-Arg amide [Example 64]”, “N-Acetyl-L-Ser-L-Arg-L-Cha-D-Pro-D-Tyr-L-Arg amide [Example 68]” is higher in “Thrombin inhibition” value: 40% for the first, 51% for the second.

First: N-Acetyl-L-Ser-L-Arg-L-Cha-D-Pro-D-Tyr-L-Arg amide [Example 50]
Second: N-Acetyl-D-Lys-L-Nle-L-Cha-D-Pro-D-Tyr-L-Arg amide [Example 20]
The “Thrombin inhibition” value of the first is higher: 51% for the first, 44% for the second.

Going from “N-Acetyl-D-Lys-L-Nle-L-Cha-D-Pro-D-Tyr-L-Arg amide [Example 51]” to “N-Acetyl-L-Ser-L-Ser-L-Cha-D-Pro-D-Tyr-L-Arg amide [Example 31]”, the “Thrombin inhibition” value falls from 48% to 40%.

Going from “N-Acetyl-L-Arg-L-Cha-D-Pro-D-Tyr-L-Arg amide [Example 21]” to “N-Acetyl-L-Arg-L-Cha-D-Pro-D-Tyr-L-Arg amide [Example 71]”, the “Thrombin inhibition” value rises from 38% to 47%.

With “N-Acetyl-L-Ser-L-Ala-L-Cha-D-Pro-D-Tyr-L-Arg amide [Example 67]” the “Thrombin inhibition” value was 47%.

Same assay, conditions: peptide concentration of 10 μM

Going from `[H]/N=C(\N)NCCCC(NC(=O)C(Cc1ccc(O)cc1)NC(=O)C1CCCN1C(=O)C(CC1CCCCC1)NC(=O)C(CCCN/C(N)=N/[H])NC(C)=O)C(N)=O` [Example 5, N-Acetyl-L-Arg-L-Cha-D-Pro-D-Tyr-L-Arg amide] to `CCCCC(NC(=O)C(CC1CCCCC1)NC(=O)C(CCCNC(=N)N)NC(C)=O)C(=O)NC(CC1CCCCC1)C(N)=O` [Example 7, N-Acetyl-L-Arg-L-Cha-L-Nle-L-Cha amide] (Ac-R[Cha][Nle][Cha]-NH2; configuration not given here), the inhibition at 10 µM falls from 98% to 60%.

First: CC(=O)NC(CCCNC(=N)N)C(=O)NC(CC1CCCCC1)C(=O)NC(CC1CCCCC1)C(=O)NC(CC1CCCCC1)C(=O)NC(CCC(=O)O)C(N)=O [Example 4, N-Acetyl-L-Arg-L-Cha-L-Cha-L-Cha-D-Glu amide] (Ac-R[Cha][Cha][Cha]E-NH2; configuration not given here)
Second: [H]/N=C(\N)NCCCC(NC(C)=O)C(=O)NC(CC1CCCCC1)C(=O)NC(CC1CCCCC1)C(=O)NC(CC1CCCCC1)C(=O)NC(CCCN)C(N)=O [Example 6, N-Acetyl-L-Arg-L-Cha-L-Cha-L-Cha-L-Orn amide]
The inhibition at 10 µM of the first is higher: 78% for the first, 71% for the second.

In the case of `CCCCC(NC(=O)C(CC1CCCCC1)NC(=O)C(CCCNC(=N)N)NC(C)=O)C(=O)NC(CC1CCCCC1)C(=O)NC(CCCN)C(N)=O` [Example 3, N-Acetyl-L-Arg-L-Cha-L-Nle-L-Cha-L-Orn amide] (Ac-R[Cha][Nle][Cha][Orn]-NH2; configuration not given here), the inhibition at 10 µM is reported as 63%.

Same assay, conditions: peptide concentration of 25 μM

In the case of `[H]/N=C(\N)NCCCC(NC(C)=O)C(=O)NC(CC1CCCCC1)C(=O)NC(CC(=O)O)C(=O)NC(CC1CCCCC1)C(N)=O` [Example 2, N-Acetyl-L-Arg-L-Cha-L-Asp-L-Cha amide], the inhibition at 25 µM is reported as 68%.
